Holding throughout (format): cell-based
Experiment [1] deals with HLA-G on the plasma membrane of the human breast cancer cell line MDA-MB-231. The experiment is described as follows: expression level of HLA-G, flow cytometry. To be noted: doxorubicin 200 nM, 48 hours, versus untreated control. How it is done:
(§1) To explore whether treatment with the chemotherapy drug affects the expression of BAG6, HLA-G and B7-H6 on the cell membrane of tumor cells, the tumor cells used were human breast cancer cell line MDA-MB-231, human malignant brain tumor cell line DBTRG-05MG (hereinafter referred to as DBTRG), human pancreatic cancer cell line AsPC-1, and human ovarian cancer cell line SKOV3. The tumor cells used were all purchased from the American Type Culture Collection (ATCC). The human breast cancer cell line MDA-MB-231 is a triple-negative breast cancer cell line, that is, the hormone receptor (ER, PR) and HER-2 receptor thereof are negative, and the human breast cancer cell line MDA-MB-231 was cultured in RPMI culture medium including 10% fetal bovine serum (FBS). The human malignant brain tumor cell line DBTRG was cultured in DMEM culture medium including 10% FBS. The human pancreatic cancer cell line AsPC-1 was cultured in RPMI culture medium including 10% FBS. The human ovarian cancer cell line SKOV3 was cultured in McCoy's 5A culture medium including 10% FBS.
For orientation: A flow cytometer gives signals particle by particle.

Experiment [2] has as its system B7-H6 on the plasma membrane of the human breast cancer cell line MDA-MB-231. The experiment is described as follows: expression level of B7-H6, flow cytometry. To be noted: doxorubicin 200 nM, 48 hours, versus untreated control. How it is done:
as §1

Experiment [3] concerns BAG6 on the plasma membrane of the human breast cancer cell line MDA-MB-231. The experiment is described as follows: expression level of BAG6, immunofluorescence staining and flow cytometry. To be noted: doxorubicin 200 nM, 48 hours, versus untreated control. On the procedure:
as §1

Experiment [4] concerns HLA-G on the plasma membrane of the human ovarian cancer cell line SKOV3. The experiment is described as follows: expression level of HLA-G, flow cytometry. As to conditions: carboplatin 20 μM, 48 hours, versus untreated control. On the procedure:
as §1

For experiment [5], the system named is B7-H6 on the plasma membrane of the human ovarian cancer cell line SKOV3. The experiment is described as follows: expression level of B7-H6, flow cytometry. To be noted: carboplatin 20 μM, 48 hours, versus untreated control. On the procedure:
as §1

Experiment [6] relates to BAG6 on the plasma membrane of the human ovarian cancer cell line SKOV3. The experiment is described as follows: expression level of BAG6, immunofluorescence staining and flow cytometry. As to conditions: carboplatin 20 μM, 48 hours, versus untreated control. How it is done:
as §1

In experiment [7] the test system is human malignant brain tumor cell line DBTRG. The experiment is described as follows: tumor cell death, Annexin V-FITC/PI flow cytometry (cytotoxicity). To be noted: group 1: chemotherapy drug alone, temozolomide 80 μg/mL, three independent trials. On the procedure:
The cells were subsequently incubated for 48 hours. Each type of the tumor cells was divided into six groups. In a control, the tumor cells were untreated. In a group 1, the tumor cells were treated with the chemotherapy drug. In a group 2, the tumor cells were treated with the parental primary T lymphocyte. In a group 3, the tumor cells are treated with the parental primary T lymphocyte and the chemotherapy drug. In a group 4, the tumor cells were treated with Example 1. In a group 5, the tumor cells were treated with Example 1 and the chemotherapy drug. […] In the group 4 and the group 5, the number of Example 1 treated was 1×10^5 cells. […] The treated cells of each group were stained with Annexin V-FITC and propidium iodide (PI), and the apoptosis and the death of the tumor cells were detected by the flow cytometry. The sum of the percentage of cells stained with Annexin V-FITC and/or PI were calculated to obtain the cytotoxicity. The results of the cytotoxicity were counted after three independent trials in each group.
The cells were subsequently incubated for 48 hours. […] The treated cells of each group were stained with Annexin V-FITC and PI, and the apoptosis and the death of the tumor cells were detected by the flow cytometry. The sum of the percentage of cells stained with Annexin V-FITC and/or PI were calculated to obtain the cytotoxicity. […]

“And” between values parts separate entries of the source, which are not always exact repeats. Equal values may be shown once.

Regarding `COc1cccc2c1C(=O)c1c(O)c3c(c(O)c1C2=O)C[C@@](O)(C(=O)CO)C[C@@H]3O[C@H]1C[C@H](N)[C@H](O)[C@H](C)O1` [doxorubicin], the “expression of HLA-G on the plasma membrane” value in experiment [1] was “increase the expression of HLA-G”. Further, in experiment [2], the “expression of B7-H6 on the plasma membrane” value is recorded as “increase the expression of B7-H6”. Also, the “expression of BAG6 on the plasma membrane” value in experiment [3] was “increase the expression of BAG6”.

Consider `N.N.O=C([O-])C1(C(=O)[O-])CCC1.[Pt+2]` [carboplatin], for which the “expression of HLA-G on the plasma membrane” value in experiment [4] was “increase the expression of HLA-G”. The “expression of B7-H6 on the plasma membrane” value in experiment [5] is recorded as “increase the expression of B7-H6”. Further, in experiment [6], the “expression of BAG6 on the plasma membrane” value is “increase the expression of BAG6”.

Turning to `Cn1nnc2c(C(N)=O)ncn2c1=O` [temozolomide], the death rate in experiment [7] was 8.4033% and 14.9267% and 5.5450% and 11.7933% and 13.9750%.

For the origin of these results see US20240374726A1, “BAG6 SPECIFIC CHIMERIC ANTIGEN RECEPTOR, NUCLEIC ACID, BAG6 SPECIFIC CHIMERIC ANTIGEN RECEPTOR EXPRESSION PLASMID, BAG6 SPECIFIC CHIMERIC ANTIGEN RECEPTOR EXPRESSING CELL, USE THEREOF, AND PHARMACEUTICAL COMPOSITION FOR TREATING CANCER” (China Medical University Hospital, priority 2023, published 2024).
